2 compounds from patent publication EP2767544A1, “AMORPHOUS SUBSTANCE OF 17 -ACETOXY-11 -(4-N,N-DIMETHYLAMINOPHENYL)-19-NORPREGNA-4,9-DIENE-3,20-DIONE AND PREPARATION METHOD THEREOF” (Shanghai Cdymax Pharmaceuticals Co., Ltd., priority 2011, dated 2013) can be followed below.

Data set [1] can be described thus: Solubility test: apparent solubility in water, supernatant concentration determined by HPLC. The settings on record: for apparent solubility: excess sample in 0.5ml of water, ultrasonic approx. 3 minutes, standing 30 minutes at room temperature, supernatant by HPLC, 30 min.
Protocol: After standing for 30 minutes at room temperature, separate the supernatant by centrifugation. Determine the concentration of sample in supernatant by HPLC (defined as apparent solubility).
A short description of data set [2]: Stability test: heat treatment under reduced pressure, analysed by XRPD, DSC, TGA and IR. The format is physicochemical. The settings on record: dried under reduced pressure at 80 °C for 8 hours, then in vacuum for 15 hours, TGA. The protocol:
Dry the samples of the amorphous CDB-2914 obtained in the above-mentioned examples under reduced pressure at 80 °C for 8 hours, and then dry in vacuum for 15 hours.

A short description of data set [3]: Hygroscopicity test using a microbalance. The format is physicochemical. To be noted: 25 °C, relative humidity of 5% to 95%, Figure 2. Here is the method: Evaluate hygroscopicity of the amorphous substance using a microbalance (MBA300W, WTI Company, USA). Hang the sample placed on the glass rack in an apparatus that preconditioned at 25 °C, and track the changes of sample weight at a relative humidity of 5% to 95%. Measure the weight of sample at each measurement point (relative humidity) at 2 minutes intervals. The final value was the weight unit at a time point that the variability is less than 0.2%.

The structures appear in SMILES notation.

In the case of `CC(=O)O[C@]1(C(C)=O)CC[C@H]2[C@@H]3CCC4=CC(=O)CCC4=C3[C@@H](c3ccc(N(C)C)cc3)C[C@@]21C` [Known crystal(crystal form A), 17α-acetoxy-11β-(4-N,N-dimethylaminophenyl)-19-norpregna-4,9-diene-3,20-dione, reference compound], the apparent solubility in data set [1] worked out at 0.125 µg/mL.

Turning to `CC(=O)O[C@]1(C(C)=O)CC[C@H]2[C@@H]3CCC4=CC(=O)CCC4=C3[C@@H](c3ccc(N(C)C)cc3)C[C@@]21C` [amorphous form, 17α-acetoxy-11β-(4-N,N-dimethylaminophenyl)-19-norpregna-4,9-diene-3,20-dione], the “thermal stability (solid form after heat treatment)” value in data set [2] is “remained amorphous”. Also, in data set [3], the hygroscopicity entry is listed as “low hygroscopicity”. In addition, the “solubility relative to crystal form A” value in data set [1] (apparent solubility in water, amorphous versus crystal form A) is reported as 8 times. For the same compound, the apparent solubility in data set [1] worked out at 1 µg/mL.
